Measured values from EP4722207A1, “OXOISOINDOLINYL-SUBSTITUTED TETRAHYDROPYRIMIDINEDIONE DERIVATIVE AND USE THEREOF” (Gluetacs Therapeutics (Shanghai) Co., Ltd., priority 2023, dated 2024).

Key:
Format in all cases: cell-based
WEE1 = molecular target: T1, WEE1 (Homo sapiens, UniProt P30291+Q96SW2); experiment: Western-blot assay, substrate protein degradation in hPBMCs: WEE1; conditions: for substrate protein remaining % WEE1: 24 hours of compound treatment, 50 nM and 500 nM; for WEE1 substrate protein remaining %: compounds at 50 nM and 500 nM, 24 hours
T1 construct: effects of the compounds of the present disclosure on the expression of target proteins in cells; endogenous in cells; host or cells: human PBMCs (hPBMCs)
T1 sequence (P30291 whole entry): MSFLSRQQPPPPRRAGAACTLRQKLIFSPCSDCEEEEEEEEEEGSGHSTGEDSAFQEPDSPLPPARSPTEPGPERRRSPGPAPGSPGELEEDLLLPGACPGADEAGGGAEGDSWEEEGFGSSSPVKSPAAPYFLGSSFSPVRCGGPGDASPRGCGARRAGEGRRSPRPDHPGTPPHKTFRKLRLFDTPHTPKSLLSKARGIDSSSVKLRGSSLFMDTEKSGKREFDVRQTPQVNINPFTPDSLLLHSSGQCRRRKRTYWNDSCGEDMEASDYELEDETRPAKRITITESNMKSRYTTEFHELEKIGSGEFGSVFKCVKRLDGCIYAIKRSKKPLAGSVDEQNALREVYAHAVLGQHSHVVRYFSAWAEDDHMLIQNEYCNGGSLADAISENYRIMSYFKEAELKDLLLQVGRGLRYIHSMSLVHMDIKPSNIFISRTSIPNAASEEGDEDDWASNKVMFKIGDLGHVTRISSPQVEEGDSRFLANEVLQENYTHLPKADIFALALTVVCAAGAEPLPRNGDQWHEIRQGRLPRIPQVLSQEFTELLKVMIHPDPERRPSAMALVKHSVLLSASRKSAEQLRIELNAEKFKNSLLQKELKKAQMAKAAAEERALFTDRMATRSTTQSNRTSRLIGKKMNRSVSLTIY
T1 sequence (Q96SW2 whole entry): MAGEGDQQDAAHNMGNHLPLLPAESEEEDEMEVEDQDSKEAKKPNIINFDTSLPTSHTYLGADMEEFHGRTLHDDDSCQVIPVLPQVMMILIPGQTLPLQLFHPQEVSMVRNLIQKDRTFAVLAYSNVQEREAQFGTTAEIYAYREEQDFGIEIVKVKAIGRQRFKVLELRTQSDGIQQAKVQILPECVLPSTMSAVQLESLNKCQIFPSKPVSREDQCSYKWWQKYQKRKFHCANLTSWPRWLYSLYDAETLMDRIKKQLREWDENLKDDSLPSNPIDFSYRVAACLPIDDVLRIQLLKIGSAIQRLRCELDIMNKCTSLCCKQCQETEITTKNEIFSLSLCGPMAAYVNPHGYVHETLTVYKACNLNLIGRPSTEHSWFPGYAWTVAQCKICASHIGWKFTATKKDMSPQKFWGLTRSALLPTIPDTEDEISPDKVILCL
T1 sequence (Q16531 whole entry partner): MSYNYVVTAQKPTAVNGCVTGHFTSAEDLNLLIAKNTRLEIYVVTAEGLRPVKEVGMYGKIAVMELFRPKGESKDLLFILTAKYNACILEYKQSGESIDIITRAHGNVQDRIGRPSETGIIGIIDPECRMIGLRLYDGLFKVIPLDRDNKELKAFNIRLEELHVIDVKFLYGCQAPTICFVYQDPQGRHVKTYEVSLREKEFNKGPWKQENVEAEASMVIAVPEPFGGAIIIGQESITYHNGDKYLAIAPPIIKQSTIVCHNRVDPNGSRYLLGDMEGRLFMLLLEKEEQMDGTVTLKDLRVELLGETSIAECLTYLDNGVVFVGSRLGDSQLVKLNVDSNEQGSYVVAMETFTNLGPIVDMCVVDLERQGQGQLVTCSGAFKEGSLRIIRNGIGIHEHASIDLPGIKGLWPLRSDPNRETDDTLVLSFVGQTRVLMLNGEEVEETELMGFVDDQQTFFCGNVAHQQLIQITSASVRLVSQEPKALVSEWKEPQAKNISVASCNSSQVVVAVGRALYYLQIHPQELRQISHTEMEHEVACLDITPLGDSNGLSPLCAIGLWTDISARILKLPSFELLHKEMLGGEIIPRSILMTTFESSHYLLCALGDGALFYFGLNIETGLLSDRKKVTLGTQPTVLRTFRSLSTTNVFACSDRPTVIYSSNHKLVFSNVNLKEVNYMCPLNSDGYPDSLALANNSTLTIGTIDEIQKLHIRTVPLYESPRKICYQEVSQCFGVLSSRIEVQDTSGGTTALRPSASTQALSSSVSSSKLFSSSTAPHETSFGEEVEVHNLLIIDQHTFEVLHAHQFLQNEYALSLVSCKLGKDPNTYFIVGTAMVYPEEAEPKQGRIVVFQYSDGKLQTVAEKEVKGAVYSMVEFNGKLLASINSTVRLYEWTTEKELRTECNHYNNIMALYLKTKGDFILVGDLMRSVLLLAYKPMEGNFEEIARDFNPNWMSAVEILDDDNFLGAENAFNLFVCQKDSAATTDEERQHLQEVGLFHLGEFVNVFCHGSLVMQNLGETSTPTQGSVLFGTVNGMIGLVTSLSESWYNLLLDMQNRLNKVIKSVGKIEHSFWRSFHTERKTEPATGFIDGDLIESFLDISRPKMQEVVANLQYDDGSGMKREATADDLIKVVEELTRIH

GSPT1 = molecular target: T2, GSPT1 (Homo sapiens, UniProt P15170+Q96SW2); experiment: Western-blot assay, substrate protein degradation in hPBMCs: GSPT1; conditions: for substrate protein remaining % GSPT1: 24 hours of compound treatment, 50 nM and 500 nM; for GSPT1 substrate protein remaining %: compounds at 50 nM and 500 nM, 24 hours
T2 construct: effects of the compounds of the present disclosure on the expression of target proteins in cells; endogenous in cells; host or cells: human PBMCs (hPBMCs)
T2 sequence (P15170 whole entry): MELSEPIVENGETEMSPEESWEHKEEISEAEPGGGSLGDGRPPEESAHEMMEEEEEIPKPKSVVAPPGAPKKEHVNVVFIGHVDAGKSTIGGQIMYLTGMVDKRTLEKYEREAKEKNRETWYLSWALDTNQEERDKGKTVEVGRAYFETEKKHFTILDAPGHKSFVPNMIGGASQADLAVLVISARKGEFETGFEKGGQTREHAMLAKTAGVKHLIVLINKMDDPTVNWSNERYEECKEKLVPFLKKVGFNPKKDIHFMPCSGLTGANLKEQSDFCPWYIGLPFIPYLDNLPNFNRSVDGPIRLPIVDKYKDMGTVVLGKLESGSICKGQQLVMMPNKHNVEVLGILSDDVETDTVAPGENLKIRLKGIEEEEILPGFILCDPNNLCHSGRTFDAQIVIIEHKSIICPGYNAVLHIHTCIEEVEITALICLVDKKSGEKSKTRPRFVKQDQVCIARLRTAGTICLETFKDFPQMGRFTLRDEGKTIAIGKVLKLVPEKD
T2 sequence (Q96SW2 whole entry): as the sequence (Q96SW2 whole entry) above
T2 sequence (Q16531 whole entry partner): as the sequence (Q16531 whole entry partner) above

IKZF1 = molecular target: T3, IKZF1 (Homo sapiens, UniProt Q13422+Q96SW2); experiment: Western-blot assay, substrate protein degradation in hPBMCs: IKZF1; conditions: for substrate protein remaining % IKZF1: 24 hours of compound treatment, 50 nM and 500 nM; for IKZF1 substrate protein remaining %: compounds at 50 nM and 500 nM, 24 hours
T3 construct: effects of the compounds of the present disclosure on the expression of target proteins in cells; endogenous in cells; host or cells: human PBMCs (hPBMCs)
T3 sequence (Q13422 whole entry): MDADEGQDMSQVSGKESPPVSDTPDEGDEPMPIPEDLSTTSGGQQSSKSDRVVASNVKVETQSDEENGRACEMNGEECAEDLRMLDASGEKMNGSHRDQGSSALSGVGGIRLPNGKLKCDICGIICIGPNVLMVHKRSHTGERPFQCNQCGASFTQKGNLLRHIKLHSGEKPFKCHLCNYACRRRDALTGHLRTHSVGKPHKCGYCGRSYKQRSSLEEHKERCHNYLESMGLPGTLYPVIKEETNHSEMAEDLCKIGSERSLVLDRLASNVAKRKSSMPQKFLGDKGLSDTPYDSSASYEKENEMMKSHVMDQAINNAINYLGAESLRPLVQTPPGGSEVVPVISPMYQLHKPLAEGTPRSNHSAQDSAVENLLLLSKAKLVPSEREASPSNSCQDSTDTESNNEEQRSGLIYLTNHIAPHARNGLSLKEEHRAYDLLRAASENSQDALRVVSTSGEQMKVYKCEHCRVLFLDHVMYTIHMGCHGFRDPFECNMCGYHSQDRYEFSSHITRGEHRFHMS
T3 sequence (Q96SW2 whole entry): as the sequence (Q96SW2 whole entry) above
T3 sequence (Q16531 whole entry partner): as the sequence (Q16531 whole entry partner) above

IKZF2 = molecular target: T4, IKZF2 (Homo sapiens, UniProt Q96SW2+Q9UKS7); experiment: Western-blot assay, substrate protein degradation in hPBMCs: IKZF2; conditions: for substrate protein remaining % IKZF2: 24 hours of compound treatment, 50 nM and 500 nM; for IKZF2 substrate protein remaining %: compounds at 50 nM and 500 nM, 24 hours
T4 construct: effects of the compounds of the present disclosure on the expression of target proteins in cells; endogenous in cells; host or cells: human PBMCs (hPBMCs)

CK1α = molecular target: T5, CK1α (Homo sapiens, UniProt P48729+Q96SW2); experiment: Western-blot assay, substrate protein degradation in hPBMCs: CK1α; conditions: for substrate protein remaining % CK1α: 24 hours of compound treatment, 50 nM and 500 nM; for CK1α substrate protein remaining %: compounds at 50 nM and 500 nM, 24 hours
T5 construct: effects of the compounds of the present disclosure on the expression of target proteins in cells; endogenous in cells; host or cells: human PBMCs (hPBMCs)
T5 sequence (P48729 whole entry): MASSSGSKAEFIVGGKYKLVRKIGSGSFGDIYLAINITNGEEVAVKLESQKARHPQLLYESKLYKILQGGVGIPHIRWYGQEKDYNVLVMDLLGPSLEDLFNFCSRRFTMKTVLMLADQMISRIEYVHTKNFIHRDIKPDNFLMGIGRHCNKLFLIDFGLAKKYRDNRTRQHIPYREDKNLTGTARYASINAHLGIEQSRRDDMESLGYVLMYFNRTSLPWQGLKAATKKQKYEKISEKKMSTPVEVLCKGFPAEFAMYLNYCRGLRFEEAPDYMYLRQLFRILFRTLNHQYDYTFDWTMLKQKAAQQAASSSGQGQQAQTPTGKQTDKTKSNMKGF
T5 sequence (Q96SW2 whole entry): as the sequence (Q96SW2 whole entry) above
T5 sequence (Q16531 whole entry partner): as the sequence (Q16531 whole entry partner) above

IKZF3 = molecular target: T6, IKZF3 (Homo sapiens, UniProt Q96SW2+Q9UKT9); experiment: Western-blot assay, substrate protein degradation in hPBMCs: IKZF3; conditions: for substrate protein remaining % IKZF3: 24 hours of compound treatment, 50 nM and 500 nM; for IKZF3 substrate protein remaining %: compounds at 50 nM and 500 nM, 24 hours
T6 construct: effects of the compounds of the present disclosure on the expression of target proteins in cells; endogenous in cells; host or cells: human PBMCs (hPBMCs)
T6 sequence (Q9UKT9 whole entry): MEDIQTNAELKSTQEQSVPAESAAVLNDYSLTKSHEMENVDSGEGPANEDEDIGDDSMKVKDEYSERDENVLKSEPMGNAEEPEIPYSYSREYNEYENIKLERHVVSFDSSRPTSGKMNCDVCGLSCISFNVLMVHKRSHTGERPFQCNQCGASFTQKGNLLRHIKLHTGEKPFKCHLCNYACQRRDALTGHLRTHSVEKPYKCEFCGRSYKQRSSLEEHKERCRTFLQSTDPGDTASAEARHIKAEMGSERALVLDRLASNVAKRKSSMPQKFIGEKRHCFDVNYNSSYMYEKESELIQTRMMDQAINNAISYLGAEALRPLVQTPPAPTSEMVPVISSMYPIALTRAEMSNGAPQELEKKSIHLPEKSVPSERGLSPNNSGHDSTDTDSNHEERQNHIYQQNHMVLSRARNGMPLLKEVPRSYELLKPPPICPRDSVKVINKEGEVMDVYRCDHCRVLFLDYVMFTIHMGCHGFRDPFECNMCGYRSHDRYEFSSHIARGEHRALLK
T6 sequence (Q96SW2 whole entry): as the sequence (Q96SW2 whole entry) above
T6 sequence (Q16531 whole entry partner): as the sequence (Q16531 whole entry partner) above

Structure (SMILES): O=C1CCN(N2Cc3cc(CN4CCN(c5nc(N6CCNCC6)c6sccc6n5)CC4)ccc3C2=O)C(=O)N1 [GT-08949, 1-(1-oxo-5-((4-(4-(piperazin-1-yl)thieno[3,2-d]pyrimidin-2-yl)piperazin-1-yl)methyl)isoindolin-2-yl)dihydropyrimidine-2,4(1H,3H)-dione]
- substrate protein remaining % WEE1 (WEE1): B (80%< substrate protein remaining %≤ 100%)
- substrate protein remaining % GSPT1 (GSPT1): A (0% ≤ substrate protein remaining % ≤ 80%)
- substrate protein remaining % IKZF1 (IKZF1): B (80%< substrate protein remaining %≤ 100%)
- substrate protein remaining % IKZF2 (IKZF2): B (80%< substrate protein remaining %≤ 100%)
- substrate protein remaining % CK1α (CK1α): B (80%< substrate protein remaining %≤ 100%)
- substrate protein remaining % IKZF3 (IKZF3): B (80%< substrate protein remaining %≤ 100%)

Structure (SMILES): Cn1cc(C2=CCN(Cc3ccc4c(c3)C(=O)N(N3CCC(=O)NC3=O)C4=O)CC2)c2ccc(F)cc21 [GT-05276, 2-(2,4-dioxotetrahydropyrimidin-1(2H)-yl)-5-((4-(6-fluoro-1-methyl-1H-indol-3-yl)-3,6-dihydropyridin-1(2H)-yl)methyl)isoindoline-1,3-dione]
- WEE1 substrate protein remaining % (WEE1): B ("B" is defined as 80%< substrate protein remaining %≤ 100%)
- GSPT1 substrate protein remaining % (GSPT1): A ("A" is defined as 0% ≤ substrate protein remaining % ≤ 80%)
- IKZF1 substrate protein remaining % (IKZF1): B ("B" is defined as 80%< substrate protein remaining %≤ 100%)
- IKZF2 substrate protein remaining % (IKZF2): B ("B" is defined as 80%< substrate protein remaining %≤ 100%)
- CK1α substrate protein remaining % (CK1α): B ("B" is defined as 80%< substrate protein remaining %≤ 100%)
- IKZF3 substrate protein remaining % (IKZF3): A ("A" is defined as 0% ≤ substrate protein remaining % ≤ 80%)

Structure (SMILES): O=C1CCN(N2Cc3cc(CN4CCC(c5ccc(F)cc5)CC4)ccc3C2=O)C(=O)N1 [GT-06890, 1-(5-((4-(4-fluorophenyl)piperidin-1-yl)methyl)-1-oxoisoindolin-2-yl)dihydropyrimidine-2,4(1H,3H)-dione]
- WEE1 substrate protein remaining % (WEE1): A ("A" is defined as 0% ≤ substrate protein remaining % ≤ 80%)
- GSPT1 substrate protein remaining % (GSPT1): A ("A" is defined as 0% ≤ substrate protein remaining % ≤ 80%)
- IKZF1 substrate protein remaining % (IKZF1): B ("B" is defined as 80%< substrate protein remaining %≤ 100%)
- IKZF2 substrate protein remaining % (IKZF2): B ("B" is defined as 80%< substrate protein remaining %≤ 100%)
- CK1α substrate protein remaining % (CK1α): B ("B" is defined as 80%< substrate protein remaining %≤ 100%)
- IKZF3 substrate protein remaining % (IKZF3): B ("B" is defined as 80%< substrate protein remaining %≤ 100%)

Structure (SMILES): O=C1CCN(N2Cc3cc(CN4CC=C(c5ccnc(F)c5F)CC4)ccc3C2=O)C(=O)N1 [GT-06397, 1-(5-((2',3'-difluoro-3,6-dihydro-[4,4'-bipyridin]-1(2H)-yl)methyl)-1-oxoisoindolin-2-yl)dihydropyrimidine-2,4(1H,3H)-dione]
- WEE1 substrate protein remaining % (WEE1): A ("A" is defined as 0% ≤ substrate protein remaining % ≤ 80%)
- GSPT1 substrate protein remaining % (GSPT1): A ("A" is defined as 0% ≤ substrate protein remaining % ≤ 80%)
- IKZF1 substrate protein remaining % (IKZF1): B ("B" is defined as 80%< substrate protein remaining %≤ 100%)
- IKZF2 substrate protein remaining % (IKZF2): A ("A" is defined as 0% ≤ substrate protein remaining % ≤ 80%)
- CK1α substrate protein remaining % (CK1α): B ("B" is defined as 80%< substrate protein remaining %≤ 100%)
- IKZF3 substrate protein remaining % (IKZF3): B ("B" is defined as 80%< substrate protein remaining %≤ 100%)

Structure (SMILES): O=C1CCN(N2Cc3cc(CN4CCN(c5cccc(F)n5)CC4)ccc3C2=O)C(=O)N1 [GT-05130, 1-(5-((4-(6-fluoropyridin-2-yl)piperazin-1-yl)methyl)-1-oxoisoindolin-2-yl)dihydropyrimidine-2,4(1H,3H)-dione]
- WEE1 substrate protein remaining % (WEE1): A ("A" is defined as 0% ≤ substrate protein remaining % ≤ 80%)
- GSPT1 substrate protein remaining % (GSPT1): A ("A" is defined as 0% ≤ substrate protein remaining % ≤ 80%)
- IKZF1 substrate protein remaining % (IKZF1): A ("A" is defined as 0% ≤ substrate protein remaining % ≤ 80%)
- IKZF2 substrate protein remaining % (IKZF2): A ("A" is defined as 0% ≤ substrate protein remaining % ≤ 80%)
- CK1α substrate protein remaining % (CK1α): A ("A" is defined as 0% ≤ substrate protein remaining % ≤ 80%)
- IKZF3 substrate protein remaining % (IKZF3): A ("A" is defined as 0% ≤ substrate protein remaining % ≤ 80%)

Structure (SMILES): O=C1CCN(N2Cc3cc(CN4CC(C5CCOc6cc(F)ccc65)C4)ccc3C2=O)C(=O)N1 (stereo not drawn) [GT-07690, 1-(5-((3-(7-fluorochroman-4-yl)azetidin-1-yl)methyl)-1-oxoisoindolin-2-yl)dihydropyrimidine-2,4(1H,3H)-dione]
- substrate protein remaining % WEE1 (WEE1): B (80%< substrate protein remaining %≤ 100%)
- substrate protein remaining % GSPT1 (GSPT1): A (0% ≤ substrate protein remaining % ≤ 80%)
- substrate protein remaining % IKZF1 (IKZF1): B (80%< substrate protein remaining %≤ 100%)
- substrate protein remaining % IKZF2 (IKZF2): A (0% ≤ substrate protein remaining % ≤ 80%)
- substrate protein remaining % CK1α (CK1α): A (0% ≤ substrate protein remaining % ≤ 80%)
- substrate protein remaining % IKZF3 (IKZF3): B (80%< substrate protein remaining %≤ 100%)

Structure (SMILES): O=C1CCN(N2Cc3cc(CN4CCN(c5cncc(Cl)c5Cl)CC4)ccc3C2=O)C(=O)N1 [GT-05436, 1-(5-((4-(4,5-dichloropyridin-3-yl)piperazin-1-yl)methyl)-1-oxoisoindolin-2-yl)dihydropyrimidine-2,4(1H,3H)-dione]
- substrate protein remaining % WEE1 (WEE1): A (0% ≤ substrate protein remaining % ≤ 80%)
- WEE1 substrate protein remaining % (WEE1): A ("A" is defined as 0% ≤ substrate protein remaining % ≤ 80%)
- substrate protein remaining % GSPT1 (GSPT1): A (0% ≤ substrate protein remaining % ≤ 80%)
- GSPT1 substrate protein remaining % (GSPT1): A ("A" is defined as 0% ≤ substrate protein remaining % ≤ 80%)
- substrate protein remaining % IKZF1 (IKZF1): B (80%< substrate protein remaining %≤ 100%)
- IKZF1 substrate protein remaining % (IKZF1): B ("B" is defined as 80%< substrate protein remaining %≤ 100%)
- substrate protein remaining % IKZF2 (IKZF2): B (80%< substrate protein remaining %≤ 100%)
- IKZF2 substrate protein remaining % (IKZF2): B ("B" is defined as 80%< substrate protein remaining %≤ 100%)
- substrate protein remaining % CK1α (CK1α): B (80%< substrate protein remaining %≤ 100%)
- CK1α substrate protein remaining % (CK1α): B ("B" is defined as 80%< substrate protein remaining %≤ 100%)
- substrate protein remaining % IKZF3 (IKZF3): B (80%< substrate protein remaining %≤ 100%)
- IKZF3 substrate protein remaining % (IKZF3): B ("B" is defined as 80%< substrate protein remaining %≤ 100%)

Structure (SMILES): O=C1CCN(N2C(=O)c3ccc(CN4CC=C(c5c[nH]c6cc(F)ccc56)CC4)cc3C2=O)C(=O)N1 [GT-07580, 2-(2,4-dioxotetrahydropyrimidin-1(2H)-yl)-5-((4-(6-fluoro-1H-indol-3-yl)-3,6-dihydropyridin-1(2H)-yl)methyl)isoindoline-1,3-dione]
- substrate protein remaining % WEE1 (WEE1): A (0% ≤ substrate protein remaining % ≤ 80%)
- substrate protein remaining % GSPT1 (GSPT1): A (0% ≤ substrate protein remaining % ≤ 80%)
- substrate protein remaining % IKZF1 (IKZF1): A (0% ≤ substrate protein remaining % ≤ 80%)
- substrate protein remaining % IKZF2 (IKZF2): A (0% ≤ substrate protein remaining % ≤ 80%)
- substrate protein remaining % CK1α (CK1α): B (80%< substrate protein remaining %≤ 100%)
- substrate protein remaining % IKZF3 (IKZF3): A (0% ≤ substrate protein remaining % ≤ 80%)

Structure (SMILES): O=C1CCN(N2C(=O)c3ccc(CN4CCN(c5c(Cl)cncc5Cl)CC4)cc3C2=O)C(=O)N1 [GT-07038, 5-((4-(3,5-dichloropyridin-4-yl)piperazin-1-yl)methyl)-2-(2,4-dioxotetrahydropyrimidin-1(2H)-yl)isoindoline-1,3-dione]
- WEE1 substrate protein remaining % (WEE1): A ("A" is defined as 0% ≤ substrate protein remaining % ≤ 80%)
- GSPT1 substrate protein remaining % (GSPT1): A ("A" is defined as 0% ≤ substrate protein remaining % ≤ 80%)
- IKZF1 substrate protein remaining % (IKZF1): A ("A" is defined as 0% ≤ substrate protein remaining % ≤ 80%)
- IKZF2 substrate protein remaining % (IKZF2): A ("A" is defined as 0% ≤ substrate protein remaining % ≤ 80%)
- CK1α substrate protein remaining % (CK1α): A ("A" is defined as 0% ≤ substrate protein remaining % ≤ 80%)
- IKZF3 substrate protein remaining % (IKZF3): A ("A" is defined as 0% ≤ substrate protein remaining % ≤ 80%)

Structure (SMILES): O=C1CCN(N2Cc3cc(CN4CCN(c5cccc(F)c5)CC4)ccc3C2=O)C(=O)N1 [GT-06701, 1-(5-((4-(3-fluorophenyl)piperazin-1-yl)methyl)-1-oxoisoindolin-2-yl)dihydropyrimidine-2,4(1H,3H)-dione]
- WEE1 substrate protein remaining % (WEE1): B ("B" is defined as 80%< substrate protein remaining %≤ 100%)
- GSPT1 substrate protein remaining % (GSPT1): A ("A" is defined as 0% ≤ substrate protein remaining % ≤ 80%)
- IKZF1 substrate protein remaining % (IKZF1): B ("B" is defined as 80%< substrate protein remaining %≤ 100%)
- IKZF2 substrate protein remaining % (IKZF2): B ("B" is defined as 80%< substrate protein remaining %≤ 100%)
- CK1α substrate protein remaining % (CK1α): A ("A" is defined as 0% ≤ substrate protein remaining % ≤ 80%)
- IKZF3 substrate protein remaining % (IKZF3): B ("B" is defined as 80%< substrate protein remaining %≤ 100%)
